Experimental data: US6350585B1, “Reagent for assay of amylase isozyme activity” (priority 1998, dated 2002)

How the values were obtained:
[1] = biological target: T1, S-type amylase (Calibzyme S) (Homo sapiens, UniProt P0DUB6); assay: amylase isozyme activity assay with potassium thiocyanate as activator, S-type amylase sample; format: biochemical; conditions: for Relative sensitivity: G3CNP at 900 mM = 100; for Percent residual enzyme activity: composition A/B
T1 construct: purchased International Reagents Corporation Calibzyme S
T1 sequence (P0DUB6 16-511): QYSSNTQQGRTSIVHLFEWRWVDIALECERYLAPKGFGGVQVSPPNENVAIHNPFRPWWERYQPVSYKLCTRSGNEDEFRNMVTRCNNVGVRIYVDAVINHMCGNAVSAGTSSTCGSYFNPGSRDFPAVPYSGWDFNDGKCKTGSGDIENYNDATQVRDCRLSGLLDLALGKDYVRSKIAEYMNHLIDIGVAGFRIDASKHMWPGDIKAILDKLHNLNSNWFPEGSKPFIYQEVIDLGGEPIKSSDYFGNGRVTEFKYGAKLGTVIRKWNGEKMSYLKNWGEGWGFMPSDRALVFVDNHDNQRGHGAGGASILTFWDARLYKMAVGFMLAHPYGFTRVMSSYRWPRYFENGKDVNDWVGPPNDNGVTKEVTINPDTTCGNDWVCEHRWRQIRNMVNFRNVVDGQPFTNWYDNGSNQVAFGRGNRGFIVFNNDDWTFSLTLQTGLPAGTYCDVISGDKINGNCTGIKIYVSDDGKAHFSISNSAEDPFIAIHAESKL
Procedure: A reagent for amylase isozyme activity assay comprising each composition as mentioned below was prepared. In the Table showing the composition, GalG2CNP (Example) is 2-chloro-4-nitrophenyl 4-O-β-D-galactopyranosylmaltoside, and G3CNP (Comparative Example) is 2-chloro-4-nitrophenylmaltotrioside.
S-type amylase-inhibiting antibody 88E8 (manufactured by Roche Diagnostics K.K.) 20 mg/L
S-type amylase-inhibiting antibody 66C7 (manufactured by Roche Diagnostics K.K.) 5 mg/L
(§1) Substrate (GalG2CNP (Example) or G3CNP (Comparative Example)) 2.6 mM
(§2) (3) S-type Amylase (Calibzyme S, Manufactured by International Reagents Corporation)
Each sample (0.05 mL was added to the reagent A (3 mL) and the reagent B (3 mL), respectively, and the mixtures were allowed to stand at 37° C. for 3 minutes. Then, the change in absorbance at 405 nm was assayed, and the change in absorbance per minute was calculated. The results are shown in Tables 1 and 2.
In the Tables, P is the case where P-type amylase was used as the sample, and S is the case where S-type amylase was used.
Percent residual enzyme activity (%)=(change in absorbance of composition A)/(change in absorbance of composition B)×100
Relative sensitivity (%)=(change in absorbance of composition B)/(change in absorbance of Comparative Example wherein potassium thiocyanate was 900 mM)×100

[2] = biological target: T1, S-type amylase (Calibzyme S); assay: amylase isozyme activity assay with sodium azide as activator, S-type amylase sample; format: biochemical; conditions: for Change in absorbance, Containing Antibody (Composition C) / Change in absorbance, Without antibody (Composition D) / Relative sensitivity / Percent residual enzyme activity: S-type amylase; for Relative sensitivity: G3CNP at 300 mM = 100; for Percent residual enzyme activity: composition C/D
Procedure: S-type amylase inhibitory antibody 88E8 (manufactured by Roche Diagnostics K.K.) 20 mg/L
S-type amylase inhibitory antibody 66C7 (manufactured by Roche Diagnostics K.K.) 5 mg/L
as §1, §2
Each of the above-mentioned samples (0.05 mL) was added to respective reagent C and D (3 mL) and the mixtures were left standing at 37° C. for 3 minutes. Then, change in absorbance at 405 nm was assayed and change in absorbance per minute was calculated.
In the Tables, P is the case where P-type amylase was used as the sample, and S is the case where S-type amylase was used. The relative sensitivity of P and S is based on the change in absorbance of G3CNP as 100, wherein sodium azide was 300 mM.
Percent residual enzyme activity and relative sensitivity were calculated by the following formulas.
Percent residual enzyme activity (%)=(change in absorbance of composition C)/(change in absorbance of composition D)×100
Relative sensitivity (%)=(change in absorbance of composition D)/(change in absorbance of Comparative Example wherein sodium azide was 300 mM)×100

Change in absorbance, Containing Antibody (Composition A) ([1]; potassium thiocyanate 0 mM): 0.9 mABS/min
Change in absorbance, Without antibody (Composition B) ([1]; potassium thiocyanate 0 mM): 14.3 mABS/min
Relative sensitivity ([1]; potassium thiocyanate 0 mM): 32.0%
Percent residual enzyme activity ([1]; potassium thiocyanate 0 mM): 6.3%
Change in absorbance, Containing Antibody (Composition A) ([1]; potassium thiocyanate 50 mM): 1.4 mABS/min
Change in absorbance, Without antibody (Composition B) ([1]; potassium thiocyanate 50 mM): 31.1 mABS/min
Relative sensitivity ([1]; potassium thiocyanate 50 mM): 69.6%
Percent residual enzyme activity ([1]; potassium thiocyanate 50 mM): 4.5%
Change in absorbance, Containing Antibody (Composition A) ([1]; potassium thiocyanate 100 mM): 1.7 mABS/min
Change in absorbance, Without antibody (Composition B) ([1]; potassium thiocyanate 100 mM): 40.2 mABS/min
Relative sensitivity ([1]; potassium thiocyanate 100 mM): 89.9%
Percent residual enzyme activity ([1]; potassium thiocyanate 100 mM): 4.2%
Change in absorbance, Containing Antibody (Composition A) ([1]; potassium thiocyanate 140 mM): 1.8 mABS/min
Change in absorbance, Without antibody (Composition B) ([1]; potassium thiocyanate 140 mM): 44.6 mABS/min
Relative sensitivity ([1]; potassium thiocyanate 140 mM): 99.8%
Percent residual enzyme activity ([1]; potassium thiocyanate 140 mM): 4.0%
Change in absorbance, Containing Antibody (Composition A) ([1]; potassium thiocyanate 200 mM): 2.2 mABS/min
Change in absorbance, Without antibody (Composition B) ([1]; potassium thiocyanate 200 mM): 50.0 mABS/min
Relative sensitivity ([1]; potassium thiocyanate 200 mM): 111.9%
Percent residual enzyme activity ([1]; potassium thiocyanate 200 mM): 4.4%
Change in absorbance, Containing Antibody (Composition A) ([1]; potassium thiocyanate 300 mM): 3.0 mABS/min
Change in absorbance, Without antibody (Composition B) ([1]; potassium thiocyanate 300 mM): 53.6 mABS/min
Relative sensitivity ([1]; potassium thiocyanate 300 mM): 119.9%
Percent residual enzyme activity ([1]; potassium thiocyanate 300 mM): 5.6%
Change in absorbance, Containing Antibody (Composition A) ([1]; potassium thiocyanate 400 mM): 3.8 mABS/min
Change in absorbance, Without antibody (Composition B) ([1]; potassium thiocyanate 400 mM): 54.5 mABS/min
Relative sensitivity ([1]; potassium thiocyanate 400 mM): 121.9%
Percent residual enzyme activity ([1]; potassium thiocyanate 400 mM): 7.0%
Change in absorbance, Containing Antibody (Composition A) ([1]; potassium thiocyanate 500 mM): 4.7 mABS/min
Change in absorbance, Without antibody (Composition B) ([1]; potassium thiocyanate 500 mM): 53.7 mABS/min
Relative sensitivity ([1]; potassium thiocyanate 500 mM): 120.1%
Percent residual enzyme activity ([1]; potassium thiocyanate 500 mM): 8.8%
Change in absorbance, Containing Antibody (Composition A) ([1]; potassium thiocyanate 600 mM): 5.7 mABS/min
Change in absorbance, Without antibody (Composition B) ([1]; potassium thiocyanate 600 mM): 51.9 mABS/min
Relative sensitivity ([1]; potassium thiocyanate 600 mM): 116.1%
Percent residual enzyme activity ([1]; potassium thiocyanate 600 mM): 11.0%
Change in absorbance, Containing Antibody (Composition A) ([1]; potassium thiocyanate 700 mM): 7.2 mABS/min
Change in absorbance, Without antibody (Composition B) ([1]; potassium thiocyanate 700 mM): 48.6 mABS/min
Relative sensitivity ([1]; potassium thiocyanate 700 mM): 108.7%
Percent residual enzyme activity ([1]; potassium thiocyanate 700 mM): 14.8%
Change in absorbance, Containing Antibody (Composition A) ([1]; potassium thiocyanate 800 mM): 8.2 mABS/min
Change in absorbance, Without antibody (Composition B) ([1]; potassium thiocyanate 800 mM): 47.1 mABS/min
Relative sensitivity ([1]; potassium thiocyanate 800 mM): 105.4%
Percent residual enzyme activity ([1]; potassium thiocyanate 800 mM): 17.4%
Change in absorbance, Containing Antibody (Composition A) ([1]; potassium thiocyanate 900 mM): 9.6 mABS/min
Change in absorbance, Without antibody (Composition B) ([1]; potassium thiocyanate 900 mM): 43.3 mABS/min
Relative sensitivity ([1]; potassium thiocyanate 900 mM): 96.9%
Percent residual enzyme activity ([1]; potassium thiocyanate 900 mM): 22.2%
Change in absorbance, Containing Antibody (Composition C) ([2]; sodium azide 0 mM): 0.8 mABS/min
Change in absorbance, Without antibody (Composition D) ([2]; sodium azide 0 mM): 14.6 mABS/min
Relative sensitivity ([2]; sodium azide 0 mM): 31.8%
Percent residual enzyme activity ([2]; sodium azide 0 mM): 5.5%
Change in absorbance, Containing Antibody (Composition C) ([2]; sodium azide 30 mM): 1.6 mABS/min
Change in absorbance, Without antibody (Composition D) ([2]; sodium azide 30 mM): 33.2 mABS/min
Relative sensitivity ([2]; sodium azide 30 mM): 72.3%
Percent residual enzyme activity ([2]; sodium azide 30 mM): 4.8%
Change in absorbance, Containing Antibody (Composition C) ([2]; sodium azide 60 mM): 2.0 mABS/min
Change in absorbance, Without antibody (Composition D) ([2]; sodium azide 60 mM): 43.8 mABS/min
Relative sensitivity ([2]; sodium azide 60 mM): 95.4%
Percent residual enzyme activity ([2]; sodium azide 60 mM): 4.6%
Change in absorbance, Containing Antibody (Composition C) ([2]; sodium azide 90 mM): 2.4 mABS/min
Change in absorbance, Without antibody (Composition D) ([2]; sodium azide 90 mM): 49.6 mABS/min
Relative sensitivity ([2]; sodium azide 90 mM): 108.1%
Percent residual enzyme activity ([2]; sodium azide 90 mM): 4.8%
Change in absorbance, Containing Antibody (Composition C) ([2]; sodium azide 120 mM): 2.6 mABS/min
Change in absorbance, Without antibody (Composition D) ([2]; sodium azide 120 mM): 53.1 mABS/min
Relative sensitivity ([2]; sodium azide 120 mM): 115.7%
Percent residual enzyme activity ([2]; sodium azide 120 mM): 4.9%
Change in absorbance, Containing Antibody (Composition C) ([2]; sodium azide 150 mM): 2.4 mABS/min
Change in absorbance, Without antibody (Composition D) ([2]; sodium azide 150 mM): 57.8 mABS/min
Relative sensitivity ([2]; sodium azide 150 mM): 125.9%
Percent residual enzyme activity ([2]; sodium azide 150 mM): 4.2%
Change in absorbance, Containing Antibody (Composition C) ([2]; sodium azide 200 mM): 2.6 mABS/min
Change in absorbance, Without antibody (Composition D) ([2]; sodium azide 200 mM): 61.1 mABS/min
Relative sensitivity ([2]; sodium azide 200 mM): 133.1%
Percent residual enzyme activity ([2]; sodium azide 200 mM): 4.3%
Change in absorbance, Containing Antibody (Composition C) ([2]; sodium azide 250 mM): 2.5 mABS/min
Change in absorbance, Without antibody (Composition D) ([2]; sodium azide 250 mM): 67.3 mABS/min
Relative sensitivity ([2]; sodium azide 250 mM): 146.6%
Percent residual enzyme activity ([2]; sodium azide 250 mM): 3.7%
Change in absorbance, Containing Antibody (Composition C) ([2]; sodium azide 300 mM): 2.6 mABS/min
Change in absorbance, Without antibody (Composition D) ([2]; sodium azide 300 mM): 66.8 mABS/min
Relative sensitivity ([2]; sodium azide 300 mM): 145.5%
Percent residual enzyme activity ([2]; sodium azide 300 mM): 3.9%
percent inhibition of S-type amylase ([2]; irrespective of sodium azide concentrations, FIG. 4 and FIG. 5): around 95%
Structure (SMILES): O=[N+]([O-])c1ccc(O[C@H]2O[C@H](CO)[C@@H](O[C@H]3O[C@H](CO)[C@@H](O[C@@H]4O[C@H](CO)[C@H](O)[C@H](O)[C@H]4O)[C@H](O)[C@H]3O)[C@H](O)[C@H]2O)c(Cl)c1 [GalG2CNP, 2-chloro-4-nitrophenyl 4-O-β-D-galactopyranosylmaltoside]
